Test results published in patent publication US11998513B2, “Two-part nitric oxide generating topical compositions” (THE REGENTS OF THE UNIVERSITY OF MICHIGAN, priority 2018, dated 2024).
Values belong to the compound of their own block, whether it stands above or below them.

Assays:
Assay type in all cases: physicochemical
[1] = Storage stability of SNAP in VASELINE® (UV-Vis % Recovery); settings: room temperature
Description: The stability of 5 wt % and 10 wt % SNAP in petroleum jelly was tested. The petroleum jelly used was VASELINE®.
Mixtures of 5 wt % SNAP powder or 10 wt % SNAP powder in VASELINE® were mixed until homogeneity was achieved. Each homogeneous mixture was spread out on a weigh boat and dried under vacuum and desiccant for 24 hours. Afterwards, individual samples were weighed out into individual amber glass vials. Each sample's mass was recorded to obtain the theoretical amount of SNAP in each sample. Septum caps were used to allow purging of each sample with nitrogen gas for storage. All caps were then wrapped in parafilm, and then each vial was wrapped in aluminum foil to ensure that the samples are not exposed to light. All samples were stored in the dark at room temperature (˜25° C. in this example).
To quantify the amount of SNAP in each VASELINE® sample, UV-Vis was used. After recording the absorption of a sample, Beer's law (A=εbc, where A=absorption, ε=922 M^−1 cm^−1, b=1 cm, and c=concentration) was used to calculate the concentration of SNAP. These measurements were made at different times over several months.
When a stored SNAP/VASELINE® sample was going to be analyzed, it was opened and 40 mg of the sample was retrieved. […] The SNAP solution was diluted 1:10 twice, and used to obtain UV-Vis absorbance values between 0.2 and 2 AU (absorbance units) at […]. […]

[2] = NO release from 1 mM GSNO bulk solution after addition of metal ions (chemiluminescence analyzer); settings: 100 μL of 1 mM salt into 2 mL of 1 mM GSNO, 10 mM Tris-HCl pH 7.4, dark, 24° C.
Description: Another experiment was performed to determine whether zinc ions can increase NO proliferation from GSNO in the dark at 24° C. NO release was measured using a nitric oxide (chemiluminescence) analyzer. Throughout the analysis, each solution was bubbled with N2 gas at a rate of 50 mL/min. Any generated NO was carried into the analyzer by a N2 sweep gas. All of the solutions were made with 10 mM Tris-HCl buffer (pH 7.4). A bulk solution was prepared including 1 mM GSNO in the buffer. 2 mL of this bulk solution were added to a sample cell and the analyzer was allowed to equilibrate for 1 minute. At t=1 minute, 100 μL of 1 mM zinc chloride (ZnCl2) was added to the bulk solution. […] For the control, 100 μL of the buffer (10 mM Tris-HCl, pH 7.4) was added into the bulk solution at t=1 minute. The same insignificant burst was observed. For each scenario, at t=10.5 minutes, 100 μL of 1 mM CuCl2 was added to the bulk as a positive control.

[3] = Storage stability of GSNO in VASELINE® (UV-Vis % Recovery); settings: room temperature (18° C. to about 25° C.)
Description: The stability of 10 wt % GSNO in petroleum jelly was tested. The petroleum jelly used was VASELINE®.
A mixture 10 wt % GSNO in VASELINE® was mixed until homogeneity was achieved. The homogeneous mixture was spread out on a weigh boat and dried under vacuum and desiccant for 24 hours. Afterwards, individual samples were weighed out into individual amber glass vials. Each sample's mass, ranging from 15-40 mg per sample, was recorded to obtain the theoretical amount of GSNO in each sample. Septum caps were used to allow purging of each sample with nitrogen gas for storage. Each sample was purged under nitrogen gas for 5 hours. […]
To quantify the amount of GSNO in each VASELINE® sample, ultraviolet-visible spectroscopy (UV-Vis) was used. […]
When a stored GSNO/VASELINE® sample was going to be analyzed, it was opened, subjected to 5 mL of xylene, vortexed for 30 seconds, and stirred for 10 minutes. […] An aliquot of the aqueous layer was taken and the absorbance spectrum was captured from 200-600 nm using UV-Vis to quantitate the level of GSNO present in the GSNO/VASELINE® sample. […]
UV-Vis spectroscopy was used to determine the stability of GSNO in VASELINE®. […] After sample prep, the aliquot of the aqueous layer was taken in an appropriate volume so that the absorbance measured would be <1 at 334 nm. The sample was further diluted if necessary to achieve an absorbance of <1. […]

period for which petroleum jelly is a stable carrier ([1]; higher amounts of SNAP (10 wt % SNAP)): at least 2 months
period for which petroleum jelly is a stable carrier ([1]; lower amounts of SNAP (5 wt % SNAP)): at least 6 months
SMILES: CC(=O)N[C@@H](C(=O)O)C(C)(C)SN=O (racemic) [SNAP, S-nitroso-n-acetylpenicillamine]

NO release on addition to GSNO bulk solution (in words) [2]: large burst in NO release
SMILES: [Cl][Cu][Cl] [CuCl2]

SMILES: [Cl-].[Cl-].[Zn+2] [ZnCl2, zinc chloride]
NO release on addition to GSNO bulk solution (in words) [2]: small, insignificant burst of NO

period for which petroleum jelly is a stable carrier [3]: at least 300 days
SMILES: N[C@@H](CCC(=O)N[C@@H](CSN=O)C(=O)NCC(=O)O)C(=O)O [GSNO, S-nitrosoglutathione]
